According to patent US5948791A, “Quinoline derivatives for treating malaria” (Hoffmann-La Roche Inc., priority 1995, dated 1999):
≈ marks a conversion by molar mass, not a printed value. Counter-ions that a name gives are not always drawn. Like-named read-outs stand apart in the source and are kept apart here.

Key:
[1] = test system: Plasmodium falciparum strain NF54; assay: Growth inhibition of Plasmodium falciparum NF54 (chloroquine-sensitive) in vitro, [G-3H]-hypoxanthin incorporation; assay type: cell-based; details: chloroquine-sensitive strain NF54, 72 h, read-out: IC50 for P. falciparum NF54
Excerpt: (§1) The ratio of the growth inhibition of a strain which is especially resistant to chloroquine and of a strain which is sensitive to chloroquine gives as the "resistance index" a measurement for the absence of a cross-resistance with chloroquine. Since, for all novel compounds the resistance index lies between 0.7 and 2.5, they inhibit the growth of sensitive as well as resistant strains of the malaria pathogen equally effectively. They are accordingly also suitable for the prophylaxis of a malaria disease and also for the treatment of a malaria disease even when chloroquine is ineffective. The good activity against malaria pathogens is also shown in animal experiments. The effective doses measured after oral and subcutaneous administration to mice infected with malaria pathogens are shown in Table 2 hereinafter.
(§2) Test method for the determination of the activity against Plasmodium falciparum in vitro
(§3) The preparations are tested on intraerythrocytary stages of Plasmodium falciparum from asynchronous cultures according to the method of Desjardin et al. (Desjardins, R. E. et al: Quantitative assessment of antimalarial activity in vitro by a semiautomated microdilution technique. Antimicrob. Agents Chemother. 16, 710-718, (1979)).
(§4) The culture medium consists of RPMI 1640 with the addition of 25 mM HEPES, 25 mM NaHCO3, 100 μg/ml neomycin and […] (A^+). Human-A^+ erythrocytes are used as the Plasmodium falciparum host cells. The parasites are maintained at 37° C. in an atmosphere of 3% O2, 4% CO2, 93% N2 and 95% relative humidity.
(§5) In order to determine the activity, the preparations are dissolved in DMSO, pre-diluted in the culture medium to a suitable starting concentration and subsequently titrated-out on to microtitre plates in the 2nd stage over 6-7 steps. After the addition of the parasite culture (0.7% parasitemia in 2.5% erythrocyte suspension) the test plates are incubated under the conditions given above for 72 h. The parasite growth in the different preparation concentrations is determined using [G-^3 H]-hypoxanthin incorporation compared to untreated control cultures on the same test plates. The 50% growth inhibition (IC50) is calculated according to logit regression analysis from the resulting dosage-activity curve.
(§6) The preparations are tested on at least one chloroquine-resistant and one chloroquine-sensitive Plasmodium falciparum strain. Additional sensitive and resistant strains are included for further characterization.

Plasmodium falciparum K1 = assay: Growth inhibition of Plasmodium falciparum K1 (chloroquine-resistant) in vitro, [G-3H]-hypoxanthin incorporation; assay type: cell-based, Plasmodium falciparum (strain K1); details: for IC50: Plasmodium falciparum, K1, 72 h, read-out: IC50 for P. falciparum K1; for Resistance index: ratio of the IC50 for K1 and the IC50 for NF54
Excerpt: as §1, §2, §3, §4, §5, §6

Plasmodium berghei = assay: animal or person; assay type: in vivo, Plasmodium berghei (strain ANKA) in mice; details: for inhibition in vivo at 10 mg/kg: Plasmodium berghei, mice, blood smears 48 h after treatment
Procedure: Test method for the determination of the activity against Plasmodium berghei in vivo
The preparations are tested on mice infected with malaria pathogens (Plasmodium berghei). Male albino mice (IBM:MORO(SPF), FUELLINSDORF) weighing about 25 g are used as the test animals. They are kept in climatized rooms at 21-22° C. in groups of 5 animals per cage. They receive ad libitum a diet feed with a low PABA content (NAFAG FUTTER " No. 9009 PAB-45, PABA content 45 mg/kg) and drinking water. On the first day of the test (D0) the test animals are infected with Plasmodium berghei (strain ANKA). For this there is used heparinized blood of a donor mouse with about 30% parasitemia, which is diluted with physiological saline such that it contains 10^8 parasitized erythrocytes per ml. 0.2 ml of this suspension is injected intravenously (i.v.) into the mice to be treated and into the control mice.
The substances to be tested are dissolved or suspended in distilled water or in a mixture of 7% Tween 80, 3% alcohol (96%) and water. Usually, 0.25 ml of this solution or suspension is administered once subcutaneously and perorally to groups of 5 test animals. Treatment is effected 24 hours after the infection. 10 control animals are treated in the same manner with solvent or suspension medium per test.
All substances are tested in a first test in a single dosage of 10 mg/kg. Only those substances which in this test (10 mg/kg) have shown a parasitaemia reduction of 90% are used for the titration. Suitable dilutions of the test substance can be used to obtain an accurate titration of the activity.
48 hours after the treatment (D+3) blood smears are prepared from all animals using blood from tail veins and are stained with giemsa. […] The difference in the average values of the infection rates of control group (100%) and treated groups is calculated and expressed as a percentage reduction (GI%). The ED50 or ED90 is determined mathematically by means of the JMP programme (nonlinear fit). The ED50 (ED90) in mg/kg is that dose which after single administration reduces the average erythrocyte infection rate by 50% (90%) in comparison to the control group.

[2] = po, single peroral dose of 10 mg/kg, read-out: Growth inhibition in % after po administration (GI%, percentage reduction of the parasitemia)
[3] = sc, single subcutaneous dose of 10 mg/kg, read-out: Growth inhibition in % after sc administration (GI%, percentage reduction of the parasitemia)

Row | SMILES | IC50 [1] | IC50 (Plasmodium falciparum K1) | Resistance index (Plasmodium falciparum K1) | inhibition in vivo at 10 mg/kg (Plasmodium berghei; [2]) | inhibition in vivo at 10 mg/kg (Plasmodium berghei; [3]) | Growth inhibition after sc administration: entry "toxic" (Plasmodium berghei; mouse, in vivo, sc, 10 mg/kg)
1 | CC(C)(CNc1ccnc2cc(Cl)ccc12)NCc1c(Cl)cccc1Cl [Example 12, N1-(7-Chloro-quinolin-4-yl)-N2-(2,6-dichloro-benzyl)-2-methyl-propane-1,2-diamine] | 84.7 ng/mL (≈ 0.207 µM) | 0.197 µg/mL (≈ 0.482 µM) | 2.3 | 98% | 4% | 
2 | Cl.Cl.Clc1ccc2c(N[C@H]3CC[C@@H](NCCc4ccccc4)CC3)ccnc2c1 [Example 13, cis-N1-(7-Chloro-quinolin-4-yl)-N4-phenethyl-cyclohexane-1,4-diamine dihydrochloride] | 2.7 ng/mL | 0.0161 µg/mL | 6.0 | 99.9% | 99.9% | 
3 | COc1cc(OC)c(CN[C@H]2CC[C@@H](Nc3ccnc4cc(Cl)ccc34)CC2)c(OC)c1.Cl.Cl [Example 14, cis-N1-(7-Chloro-quinolin-4-yl)-N4-(2,4,6-trimethoxy-benzyl)-cyclohexane-1,4-diamine dihydrochloride] | 4.8 ng/mL | 0.0284 µg/mL | 5.9 | 100% | 100% | 
4 | Cl.Cl.Clc1ccc2c(N[C@H]3CC[C@@H](NCc4c(Cl)cccc4Cl)CC3)ccnc2c1 [Example 15, cis-N1-(7-Chloro-quinolin-4-yl)-N4-(2,6-dichloro-benzyl)-cyclohexane-1,4-diamine dihydrochloride] | 4.3 ng/mL | 0.0147 µg/mL | 3.4 |  | 92% | 
5 | COc1cccc(OC)c1CN[C@H]1CC[C@@H](Nc2ccnc3cc(Cl)ccc23)CC1.Cl.Cl [Example 16, cis-N1-(7-Chloro-quinolin-4-yl)-N4-(2,6-dimethoxy-benzyl)-cyclohexane-1,4-diamine dihydrochloride] | 2 ng/mL | 0.017 µg/mL | 8.5 | 99.8% | 99.9% | 
6 | Cl.Cl.Clc1ccc2c(N[C@H]3CC[C@@H](NCc4c(Cl)ccc(Cl)c4Cl)CC3)ccnc2c1 [Example 17, cis-N1-(7-Chloro-quinolin-4-yl)-N4-(2,3,6-trichloro-benzyl)-cyclohexane-1,4-diamine dihydrochloride] | 6.4 ng/mL | 0.0174 µg/mL | 2.8 | 32% | 87% | 
7 | COc1cc(O)c(CN[C@H]2CC[C@@H](Nc3ccnc4cc(Cl)ccc34)CC2)c(OC)c1.Cl.Cl [Example 18, cis-2-{[4-(7-Chloro-quinolin-4-ylamino)-cyclohexylamino]-methyl}-3,5-dimethoxy-phenol dihydrochloride] | 5.5 ng/mL | 0.021 µg/mL | 3.8 | 100% | 100% | 
8 | Cl.Cl.Fc1cccc(F)c1CN[C@H]1CC[C@@H](Nc2ccnc3cc(Cl)ccc23)CC1 [Example 19, cis-N1-(7-Chloro-quinolin-4-yl)-N4-(2,6-difluoro-benzyl)-cyclohexane-1,4-diamine dihydrochloride] | 4.9 ng/mL | 0.0143 µg/mL | 2.9 | 21% |  | toxic
9 | Clc1ccc2c(N[C@H]3CC[C@@H](NCCCc4ccccc4)CC3)ccnc2c1 [Example 20, cis-N1-(7-Chloro-quinolin-4-yl)-N4-(3-phenyl-propyl)-cyclohexane-1,4-diamine dihydrochloride] | 4.4 ng/mL | 0.0108 µg/mL | 2.5 | 94% | 98% | 
10 | COc1ccc(CN[C@H]2CC[C@@H](Nc3ccnc4cc(Cl)ccc34)CC2)cc1.Cl.Cl [Example 21, cis-N1-(7-Chloro-quinolin-4-yl)-N4-(4-methoxy-benzyl)-cyclohexane-1,4-diamine dihydrochloride] | 5.1 ng/mL | 0.0093 µg/mL | 1.8 | 99.9% | 100% | 
11 | Cl.Cl.O=[N+]([O-])c1cccc(Cl)c1CN[C@H]1CC[C@@H](Nc2ccnc3cc(Cl)ccc23)CC1 [Example 22, cis-N1-(2-Chloro-6-nitro-benzyl)-N4-(7-chloro-quinolin-4-yl)-cyclohexane-1,4-diamine dihydrochloride] | 11.6 ng/mL | 0.0189 µg/mL | 1.6 | 42% | 84% | 
12 | CC(C)(CNc1ccnc2cc(Cl)ccc12)NCc1cc(Cl)cc(Cl)c1.Cl.Cl [Example 23, N1-(7-Chloro-quinolin-4-yl)-N2-(3,5-dichloro-benzyl)-2-methylpropane-1,2-diamine dihydrochloride] | 29.6 ng/mL | 0.0325 µg/mL | 1.1 | 97% | 98% | 
13 | CC(C)(CNc1ccnc2cc(Cl)ccc12)NCc1ccccc1 [Example 24, N1-(7-Chloro-quinolin-4-yl)-N2-(benzyl)-2-methyl-propane-1,2-diamine dihydrochloride] | 7.9 ng/mL | 0.0132 µg/mL | 1.7 | 81% | 95% | 
14 | CC(C)(CNc1ccnc2cc(Cl)ccc12)NCc1ccc(Cl)cc1 [Example 25, N1-(7-Chloro-quinolin-4-yl)-N2-(4-chloro-benzyl)-2-methyl-propane-1,2-diamine dihydrochloride] | 17.3 ng/mL | 0.0129 µg/mL | 0.7 | 99.2% | 99.8% | 
15 | CC(C)(CNc1ccnc2cc(Cl)ccc12)NCc1ccc(Cl)c(F)c1.Cl.Cl [Example 27, N1-(7-Chloro-quinolin-4-yl)-N2-(4-chloro-3-fluoro-benzyl)-2-methyl-propane-1,2-diamine dihydrochloride] | 16 ng/mL | 0.0233 µg/mL | 1.5 | 99% | 98% | 
16 | CC(=O)O.CC(=O)O.CC(C)(CNc1ccnc2cc(Cl)ccc12)NCc1ccccc1O [Example 28, N1-(7-Chloro-quinolin-4-yl)-N2-(2-hydroxybenzyl)-2-methyl-propane-1,2-diamine diacetate] | 4 ng/mL | 0.0107 µg/mL | 2.7 | 79% | 96% | 
17 | COc1ccc(CNC(C)(C)CNc2ccnc3cc(Cl)ccc23)c(O)c1.Cl.Cl [Example 29, N1-(7-Chloro-quinolin-4-yl)-N2-(2-hydroxy-4-methoxy-benzyl)-2-methyl-propane-1,2-diamine dihydrochloride] | 7.7 ng/mL | 0.0162 µg/mL | 2.1 | 74% | 99% | 
